Reference: US20100323016A1, “MODIFIED RELEASE FORMULATION AND METHODS OF USE” (priority 2008, published 2010)
In brackets after ≈: the same amount, converted by molar mass. Where two headings read alike, the source gives them in different places.

Experiment: Solubility of retigabine in aqueous solution at varying pH
Format: physicochemical
From the text: Solubility was low in pH ranges of between pH 4.0 to pH 12.0.

Structure (SMILES): CCOC(=O)Nc1ccc(NCc2ccc(F)cc2)cc1N [retigabine, N-(2-amino-4-(fluorobenzylamino)-phenyl)carbamic acid ethyl ester]
- solubility as a function of pH (above pH 3 (FIG. 5)): drops off precipitously
- solubility (pH 3.0, aqueous conditions at 37° C.): nearly complete insolubility
- solubility (pH 4.0 to pH 12.0, aqueous solution at 37° C.): low
- solubility (simulated gastric fluid, pH 1.5, aqueous solution at 37° C., maximum solubility, read-out: solubility): ~16 mg/mL (≈ 52.7 mM)
- solubility (simulated gastric fluid, pH 2.0, aqueous solution at 37° C., read-out: solubility): < 4 mg/mL
